Measured values published in patent US20250223268A1, “4-Methylsulfonylbenzamide Compound, Preparation Method, Herbicidal Composition And Use” (Jiangsu Flag Chemical Industry Co., Ltd., priority 2022, published 2025).

What was measured:
Format in all cases: in vivo
Digitaria sanguinalis [1] = assay: Greenhouse herbicidal activity and crop safety comparison (Test Example 2)
Outline: (§1)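 Fresh weight inhibition, banded into grades A to E (E <20%), was rated 14-21 days after foliar spraying of 3-6 leaf plants, or 14-30 days after a soil spray applied 24 h post-sowing.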

Zea mays = assay: as above
Outline: as §1

Leptochloa chinensis [2] = assay: Greenhouse herbicidal activity assay, post-emergence; conditions: Post-emergence test, rate 150 g a.i./hm^2, grade by fresh weight inhibition rate
Outline: (§2)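 Weeds and crops grown in pots of nutrient soil in a growth chamber to the 3-6 leaf stage, then foliar-sprayed and air-dried. Fresh weight inhibition scored 14-21 days after treatment and graded A (≥80%) through E (<20%).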

Cyperus iria = assay: as above; conditions: Post-emergence test, rate 150 g a.i./hm^2, grade by fresh weight inhibition rate
Outline: as §2

Eclipta prostrata = assay: as above; conditions: Post-emergence test, rate 150 g a.i./hm^2, grade by fresh weight inhibition rate
Outline: as §2

Echinochloa crusgalli [3] = assay: as above; conditions: Post-emergence test, rate 150 g a.i./hm^2, grade by fresh weight inhibition rate
Outline: as §2

Digitaria sanguinalis [4] = assay: as above; conditions: Post-emergence test, rate 150 g a.i./hm^2, grade by fresh weight inhibition rate
Outline: as §2

[5] = test system: Oryza sativa subsp. japonica; assay: Greenhouse herbicidal activity and crop safety comparison (Test Example 2)
Outline: as §1

Echinochloa crusgalli [6] = assay: as above
Outline: as §1

[7] = test system: Oryza sativa subsp. indica; assay: as above
Outline: as §1

Leptochloa chinensis [8] = assay: as above; conditions: Rate 150 g/ha
Outline: as §1

[9] = Digitaria sanguinalis, Rate 75 g/ha, read-out: Digitaria sanguinalis, control efficacy grading (fresh weight inhibition rate)
[10] = Digitaria sanguinalis, Rate 150 g/ha, read-out: Digitaria sanguinalis, control efficacy grading (fresh weight inhibition rate)
[11] = Echinochloa crus-galli, Rate 75 g/ha, read-out: Echinochloa crusgalli, control efficacy grading (fresh weight inhibition rate)

| Structure (SMILES) | inhibition at 75 g/ha (Digitaria sanguinalis [1]; [9]) | inhibition at 150 g/ha (Digitaria sanguinalis [1]; [10]) | Zea mays, grading of fresh weight inhibition rate (crop safety) (Zea mays; Rate 18.75 g/ha) | Zea mays, grading of fresh weight inhibition rate (crop safety) (Zea mays; Rate 75 g/ha) | Zea mays, grading of fresh weight inhibition rate (crop safety) (Zea mays; Rate 150 g/ha) | Digitaria sanguinalis, control efficacy grading (fresh weight inhibition rate) (Digitaria sanguinalis [1]; Rate 150 g/ha) | Control efficacy grade, Leptochloa chinensis (Leptochloa chinensis [2]) | Control efficacy grade, Cyperus iria (Cyperus iria) | Control efficacy grade, Eclipta prostrata (Eclipta prostrata) | Control efficacy grade, Echinochloa crusgalli (Echinochloa crusgalli [3]) | Control efficacy grade, Digitaria sanguinalis (Digitaria sanguinalis [4]) | Oryza sativa subsp. japonica, grading of fresh weight inhibition rate (crop safety) ([5]; Rate 75 g/ha) | Oryza sativa subsp. japonica, grading of fresh weight inhibition rate (crop safety) ([5]; Rate 150 g/ha) | Oryza sativa subsp. indica, grading of fresh weight inhibition rate (crop safety) ([7]; Rate 75 g/ha) | Oryza sativa subsp. indica, grading of fresh weight inhibition rate (crop safety) ([7]; Rate 150 g/ha) | further results |
| --- | --- | --- | --- | --- | --- | --- | --- | --- | --- | --- | --- | --- | --- | --- | --- | --- |
| CCC[S+]([O-])c1c(S(C)(=O)=O)ccc(C(=O)Nc2nonc2C)c1Cl (racemic) [Compound 4-2, 2-chloro-N-(4-methyl-1,2,5-oxadiazol-3-yl)-4-(methylsulfonyl)-3-(propylsulfinyl)benzamide] | 80 to 100% | 80 to 100% | E (Fresh weight inhibition rate<20%) | E (Fresh weight inhibition rate<20%) | E (Fresh weight inhibition rate<20%) |  |  |  |  |  |  |  |  |  |  | pest or weed control at 150 g/ha (Leptochloa chinensis [2]; Dinebra chinensis, read-out: Control efficacy grade, Leptochloa chinensis): 80 to 100%; pest or weed control at 150 g/ha (Cyperus iria; Cyperus iria, read-out: Control efficacy grade, Cyperus iria): 80 to 100%; pest or weed control at 150 g/ha (Eclipta prostrata; Eclipta prostrata, read-out: Control efficacy grade, Eclipta prostrata): 80 to 100%; pest or weed control at 150 g/ha (Echinochloa crusgalli [3]; Echinochloa crus-galli, read-out: Control efficacy grade, Echinochloa crusgalli): 80 to 100%; pest or weed control at 150 g/ha (Digitaria sanguinalis [4]; Digitaria sanguinalis, read-out: Control efficacy grade, Digitaria sanguinalis): 80 to 100% |
| CCC[S+]([O-])c1c(S(C)(=O)=O)ccc(C(=O)Nc2nonc2C)c1Cl (single isomer, unassigned) [Compound 4-3] |  |  | E (Fresh weight inhibition rate<20%) | E (Fresh weight inhibition rate<20%) | E (Fresh weight inhibition rate<20%) | A (Fresh weight inhibition rate≥80% to 100%) | A (Fresh weight inhibition rate≥80% to 100%) | A (Fresh weight inhibition rate≥80% to 100%) | A (Fresh weight inhibition rate≥80% to 100%) | A (Fresh weight inhibition rate≥80% to 100%) | A (Fresh weight inhibition rate≥80% to 100%) |  |  |  |  | Digitaria sanguinalis, control efficacy grading (fresh weight inhibition rate) (Digitaria sanguinalis [1]; Rate 18.75 g/ha): A (Fresh weight inhibition rate≥80% to 100%); Digitaria sanguinalis, control efficacy grading (fresh weight inhibition rate) (Digitaria sanguinalis [1]; Rate 75 g/ha): A (Fresh weight inhibition rate≥80% to 100%) |
| CCC[S+]([O-])c1c(S(C)(=O)=O)ccc(C(=O)Nc2nonc2C)c1Cl (single isomer, unassigned) [Compound 4-4] |  |  | E (Fresh weight inhibition rate<20%) | E (Fresh weight inhibition rate<20%) | E (Fresh weight inhibition rate<20%) | A (Fresh weight inhibition rate≥80% to 100%) | A (Fresh weight inhibition rate≥80% to 100%) | A (Fresh weight inhibition rate≥80% to 100%) | A (Fresh weight inhibition rate≥80% to 100%) | A (Fresh weight inhibition rate≥80% to 100%) | A (Fresh weight inhibition rate≥80% to 100%) |  |  |  |  | Digitaria sanguinalis, control efficacy grading (fresh weight inhibition rate) (Digitaria sanguinalis [1]; Rate 75 g/ha): A (Fresh weight inhibition rate≥80% to 100%) |
| Cn1ncnc1NC(=O)c1ccc(S(C)(=O)=O)c(S(C)(=O)=O)c1Cl [CK3, reference compound] | < 20% | 20 to 40% |  | E (Fresh weight inhibition rate<20%) | D (Fresh weight inhibition rate≥20% to <40%) |  |  |  |  |  |  | D (Fresh weight inhibition rate≥20% to <40%) | C (Fresh weight inhibition rate≥40% to <60%) | D (Fresh weight inhibition rate≥20% to <40%) | B (Fresh weight inhibition rate≥260% to <80%) | inhibition at 75 g/ha (Echinochloa crusgalli [6]; [11]): 40 to 60%; inhibition at 150 g/ha (Echinochloa crusgalli [6]; Echinochloa crus-galli, Rate 150 g/ha, read-out: Echinochloa crusgalli, control efficacy grading (fresh weight inhibition rate)): 80 to 100% |
| CCS(=O)(=O)c1c(S(C)(=O)=O)ccc(C(=O)Nc2ncnn2C)c1Cl [CK4, reference compound] | 20 to 40% | 40 to 60% |  | E (Fresh weight inhibition rate<20%) | D (Fresh weight inhibition rate≥20% to <40%) |  |  |  |  |  |  | C (Fresh weight inhibition rate≥40% to <60%) | C (Fresh weight inhibition rate≥40% to <60%) | C (Fresh weight inhibition rate≥40% to <60%) | B (Fresh weight inhibition rate≥260% to <80%) | inhibition at 75 g/ha (Echinochloa crusgalli [6]; [11]): 40 to 60% |
| Cc1nonc1NC(=O)c1ccc(S(C)(=O)=O)c([S+](C)[O-])c1Cl (stereo not drawn) [CK6, reference compound] | 40 to 60% | 40 to 60% | E (Fresh weight inhibition rate<20%) | D (Fresh weight inhibition rate≥20% to <40%) | D (Fresh weight inhibition rate≥20% to <40%) |  |  |  |  |  |  |  |  |  |  | inhibition at 18.75 g/ha (Digitaria sanguinalis [1]; Digitaria sanguinalis, Rate 18.75 g/ha, read-out: Digitaria sanguinalis, control efficacy grading (fresh weight inhibition rate)): < 20% |
| Cn1ncnc1NC(=O)c1ccc(S(C)(=O)=O)c(S(=O)(=O)C2CCC2)c1Cl [Compound 2-41] |  |  |  | E (Fresh weight inhibition rate<20%) | E (Fresh weight inhibition rate<20%) | A (Fresh weight inhibition rate≥80% to 100%) |  | A (Fresh weight inhibition rate≥80% to 100%) | A (Fresh weight inhibition rate≥80% to 100%) | A (Fresh weight inhibition rate≥80% to 100%) | A (Fresh weight inhibition rate≥80% to 100%) | E (Fresh weight inhibition rate<20%) | E (Fresh weight inhibition rate<20%) | E (Fresh weight inhibition rate<20%) | E (Fresh weight inhibition rate<20%) | Echinochloa crusgalli, control efficacy grading (fresh weight inhibition rate) (Echinochloa crusgalli [6]; Rate 75 g/ha): A (Fresh weight inhibition rate≥80% to 100%); Echinochloa crusgalli, control efficacy grading (fresh weight inhibition rate) (Echinochloa crusgalli [6]; Rate 150 g/ha): A (Fresh weight inhibition rate≥80% to 100%) |
| C=CCS(=O)(=O)c1c(S(C)(=O)=O)ccc(C(=O)Nc2nnc(C3CC3)o2)c1Cl [Compound 3-690] |  |  |  |  |  |  | A (Fresh weight inhibition rate≥80% to 100%) | A (Fresh weight inhibition rate≥80% to 100%) | A (Fresh weight inhibition rate≥80% to 100%) | A (Fresh weight inhibition rate≥80% to 100%) | B (Fresh weight inhibition rate≥260% to <80%) |  | E (Fresh weight inhibition rate<20%) |  | E (Fresh weight inhibition rate<20%) | Leptochloa chinensis, control efficacy grading (fresh weight inhibition rate) (Leptochloa chinensis [8]): A (Fresh weight inhibition rate≥80% to 100%); Echinochloa crusgalli, control efficacy grading (fresh weight inhibition rate) (Echinochloa crusgalli [6]; Rate 150 g/ha): A (Fresh weight inhibition rate≥80% to 100%) |
